Experimental findings from US9006232B2, “Pyrimidone derivatives” (Mitsubishi Tanabe Pharma Corporation, priority 2009, dated 2015) are described below.

Where a name gives a salt, the structure may show the parent alone.

For this test, the target named is bovine cerebral TPK1 (Bos taurus, UniProt A0A059UE90). Put plainly: Inhibitory activity against P-GS1 phosphorylation by bovine cerebral TPK1. The class given is biochemical. As to conditions: P-GS1 phosphorylation, 41.7 μM [γ-32P] ATP, 25° C., 2 hours; read-out: IC50. As for the experimental part: Inhibitory Activity of the Medicament of the Present Invention Against P-GS1 Phosphorylation by Bovine Cerebral TPK1 […] The phosphorylation was started by adding ATP, and the reaction was conducted at 25° C. for 2 hours, and then stopped by adding 21% perchloric acid on ice cooling. The reaction mixture was centrifuged at 12,000 rpm for 5 minutes and adsorbed on P81 paper (Whatmann), and then the paper was washed four times with 75 mM phosphoric acid, three times with water and once with acetone. The paper was dried, and the residual radioactivity was measured using a liquid scintillation counter.
Chain of bovine cerebral TPK1 (A0A059UE90 1-419): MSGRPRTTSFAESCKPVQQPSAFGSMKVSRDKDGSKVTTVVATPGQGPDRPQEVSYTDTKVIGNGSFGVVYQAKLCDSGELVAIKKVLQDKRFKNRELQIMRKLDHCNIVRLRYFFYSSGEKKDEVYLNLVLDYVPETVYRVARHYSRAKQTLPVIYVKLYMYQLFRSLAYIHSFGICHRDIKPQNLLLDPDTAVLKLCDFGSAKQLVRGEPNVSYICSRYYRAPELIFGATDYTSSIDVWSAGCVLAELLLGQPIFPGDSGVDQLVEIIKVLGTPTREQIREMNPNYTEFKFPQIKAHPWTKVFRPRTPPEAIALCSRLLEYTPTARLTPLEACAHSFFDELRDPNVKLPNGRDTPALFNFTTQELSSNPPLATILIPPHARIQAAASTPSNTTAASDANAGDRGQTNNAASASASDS
For orientation: IC50 means the point on the concentration scale where inhibition reaches its midpoint. In the case of `Cn1c(OCC(OC2CCCCO2)c2ccccc2)nc(-c2ccncn2)cc1=O` (centres unmarked) [Compound No. 2.502, 1-Methyl-2-[2-phenyl-2-(tetrahydro-pyran-2-yloxy)ethoxy]-1H-[4,4′]bipyrimidinyl-6-one], the IC50 worked out at 349 nM. To `Cn1c(OC2CCN(c3ccc(CN4CCCCC4)cc3)CC2)nc(-c2ccncc2F)cc1=O` [1.216, 6-(3-Fluoro-pyridin-4-yl)-3-methyl-2-[1-(4-piperidin-1-ylmethyl-phenyl)piperidin-4-yloxy]-3H-pyrimidin-4-one] belongs 10.9 nM; to `Cn1c(OC[C@H]2CCCN2C(=O)Oc2ccccc2)nc(-c2ccncn2)cc1=O` [Compound No. 2.201, Phenyl (2R)-2-(1-methyl-6-oxo-1,6-dihydro-[4,4′]bipyrimidinyl-2-yloxymethyl)pyrrolidine-1-carboxylate], 56.4 nM. Turning to `CCN(CCOc1nc(-c2ccncn2)cc(=O)n1C)c1cccc(C)c1` [1.809, 2-[2-(Ethyl-m-tolyl-amino)-ethoxy]-1-methyl-1H-[4,4′] bipyrimidinyl-6-one], the IC50 turned out to be 431 nM. For the molecule `Cn1c(OC2CCCN(c3ccccc3F)C2)nc(-c2ccncn2)cc1=O` (centres unmarked) [1.103, 2-[1-(2-Fluoro-phenyl)piperidin-3-yloxy]-1-methyl-1H-[4,4′] bipyrimidinyl-6-one], the IC50 is 49 nM. On to `Cn1c(OC2CCN(c3ccc(-c4ccncc4)cc3)CC2)nc(-c2ccncc2F)cc1=O` [1.207, 6-(3-Fluoro-pyridin-4-yl)-3-methyl-2-[1-(4-pyridin-4-yl-phenyl)piperidin-4-yloxy]-3H-pyrimidin-4-one], for which the IC50 turned out to be 32.6 nM. As to `Cn1c(OCCCc2cccnc2)nc(-c2ccncn2)cc1=O` [1.810, 1-Methyl-2-(3-pyridin-3-yl-propoxy)-1H-[4,4′]bipyrimidinyl-6-one], the IC50 was 201 nM. As to `Cn1c(OC2CCCN(c3ccc(C#N)cc3)CC2)nc(-c2ccncn2)cc1=O` (centres unmarked) [Compound No. 1.701, 4-[4-(1-Methyl-6-oxo-1,6-dihydro-[4,4′]bipyrimidinyl-2-yloxy)azepan-1-yl]benzonitrile], the IC50 worked out at 30.3 nM. As for `CN1CCN(Cc2cccc(N3CCC(Oc4nc(-c5ccncn5)cc(=O)n4C)CC3)c2)CC1` [1.222, 1-Methyl-2-{1-[3-(4-methyl-piperazin-1-ylmethyl)phenyl]piperidin-4-yloxy}-1H-[4,4′] bipyrimidinyl-6-one], the IC50 was found to be 21.5 nM. Turning to `Cn1c(OC2CCCC2)nc(-c2ccncn2)cc1=O` [1.804, 2-Cyclopentyloxy-1-methyl-1H-[4,4′]bipyrimidinyl-6-one], the IC50 turned out to be 100 nM. To `Cn1c(O[C@H]2CC[C@@H](c3ccc(CO)cc3)CC2)nc(-c2ccncn2)cc1=O` [Compound No. 1.902, 2-[cis-4-(4-Hydroxymethyl-phenyl)cyclohexyloxy]-1-methyl-1H-[4,4′]bipyrimidinyl-6-one] belongs 124 nM; to `Cn1c(OCC2(c3ccccc3)OCCO2)nc(-c2ccncn2)cc1=O` [Compound No. 2.501, 1-Methyl-2-(2-phenyl-[1,3]dioxolan-2-ylmethoxy)-1H-[4,4′] bipyrimidinyl-6-one], 386 nM. For `Cn1c(OC2CCN(c3cncnc3)CC2)nc(-c2ccncc2F)cc1=O` [1.229, 6-(3-Fluoro-pyridin-4-yl)-3-methyl-2-(1-pyrimidin-5-yl-piperidin-4-yloxy)-3H-pyrimidin-4-one], the 50% inhibitory concentration (IC50) is 216 nM. Then `Cn1c(OC2CCN(C(=O)OCc3ccccc3)CC2)nc(-c2ccncn2)cc1=O` [1.110, Benzyl 4-(1-methyl-6-oxo-1,6-dihydro-[4,4′]bipyrimidinyl-2-yloxy) piperidine-1-carboxylate], with 140 nM; and `Cn1c(OC[C@H]2CCN(c3ccccc3)C2)nc(-c2ccncn2)cc1=O` [2.209, 1-Methyl-2-[(3S)-1-phenyl-pyrrolidin-3-ylmethoxy]-1H-[4,4′] bipyrimidinyl-6-one], with 941 nM; and `CN1CCN(Cc2ccc(N3CCC(Oc4nc(-c5ccncn5)cc(=O)n4C)CC3)cc2)CC1` [Compound No. 1.203, 1-Methyl-2-{1-[4-(4-methyl-piperazin-1-ylmethyl)phenyl]piperidin-4-yloxy}-1H-[4,4′] bipyrimidinyl-6-one], with 6.4 nM.

For `Cn1c(OC2CCN(c3ccccc3CN3CCOCC3)CC2)nc(-c2ccncn2)cc1=O` [Compound No. 1.301, 1-Methyl-2-[1-(2-morpholin-4-ylmethyl-phenyl)piperidin-4-yloxy]-1H-[4,4′]bipyrimidinyl-6-one], the IC50 was found to be 61.1 nM.

Take `Cn1c(OCCc2ccc(CN3CCCCC3)cc2)nc(-c2ccncc2)cc1=O` [Compound No. 2.401, 3-Methyl-2-[2-(4-piperidin-1-ylmethyl-phenyl)ethoxy]-6-pyridin-4-yl-3H-pyrimidin-4-one dihydrochioride]: the IC50 is 110 nM. With `CCC1CCCCC1Oc1nc(-c2ccncn2)cc(=O)n1C` (centres unmarked) [1.803, 2-(2-Ethyl-cyclohexyloxy)-1-methyl-1H-[4,4′]bipyrimidinyl-6-one], the IC50 turned out to be 948 nM. To `CN1CCN(Cc2ccc([C@H]3CC[C@H](Oc4nc(-c5ccncn5)cc(=O)n4C)CC3)cc2)CC1` [Compound No. 1.903, 1-Methyl-2-{trans-4-[4-(4-methyl-piperazin-1-ylmethyl)phenyl]cyclohexyloxy}-1H-[4,4′] bipyrimidinyl-6-one] belongs 7.8 nM; to `CN(C)Cc1ccc(CCOc2nc(-c3ccncc3)cc(=O)n2C)cc1` [Compound No. 2.402, 2-[2-(4-Dimethylaminomethyl-phenyl)ethoxy]-3-methyl-6-pyridin-4-yl-3H-pyrimidin-4-one dihydrochloride], 150 nM. Regarding `Cn1c(OC2CCCN(c3ccc(F)cc3)C2)nc(-c2ccncn2)cc1=O` (centres unmarked) [1.105, 2-[1-(4-Fluoro-phenyl)piperidin-3-yloxy]-1-methyl-1H-[4,4′] bipyrimidinyl-6-one], the IC50 came to 61.4 nM.

Turning to `Cn1c(OC2CCN(c3ccc(CN4CCCC4)cc3)CC2)nc(-c2ccncn2)cc1=O` [1.217, 1-Methyl-2-[1-(4-pyrrolidin-1-ylmethyl-phenyl)piperidin-4-yloxy]-1H-[4,4′]bipyrimidinyl-6-one], the IC50 was 12 nM.

Take `Cn1c(OCC2CCN(c3ccc(CN4CCCCC4)cc3)CC2)nc(-c2ccncc2)cc1=O` [1.232, 3-Methyl-2-[1-(4-piperidin-1-ylmethyl-phenyl)piperidin-4-ylmethoxy]-6-pyridin-4-yl-3H-pyrimidin-4-one]: the IC50 was 162 nM. For the molecule `Cn1c(O[C@H]2CC[C@H](c3ccc(CO)cc3)CC2)nc(-c2ccncn2)cc1=O` [Compound No. 1.901, 2-[trans-4-(4-Hydroxymethyl-phenyl)cyclohexyloxy]-1-methyl-1H-[4,4′]bipyrimidinyl-6-one], the IC50 was found to be 115 nM. Then `CCCCCCOc1nc(-c2ccncc2)cc(=O)n1C` [2.003, 2-Hexyloxy-3-methyl-6-pyridin-4-yl-3H-pyrimidin-4-one], with 260 nM; and `Cn1c(OC2CCN(c3ccc4c(c3)COC(=O)N4)CC2)nc(-c2ccncn2)cc1=O` [Compound No. 1.401, 1-Methyl-2-{[1-(2-oxo-1,4-dhydro-2H-3,1-benzoxazin-6-yl)piperidin-4-yl]oxy}-1H-[4,4′] bipyrimidinyl-6-one], with 43.7 nM; and `CN1Cc2ccc(N3CCC(Oc4nc(-c5ccncn5)cc(=O)n4C)CC3)cc2C1` [1.226, 1-Methyl-2-[1-(2-methyl-2,3-dihydro-1H-isoindol-5-yl)piperidin-4-yloxy]-1H-[4,4′]bipyrimidinyl-6-one], with 23.7 nM.

As for `Cn1c(O[C@H]2C[C@H]3CC[C@@H](C2)N3c2ccc(F)cc2)nc(-c2ccncn2)cc1=O` [Compound No. 2.102, endo-2-[8-(4-Fluoro-phenyl)-8-aza-bicyclo[3.2.1]oct-3-yloxy]-1-methyl-1H-[4,4′]bipyrimidinyl-6-one], the IC50 was found to be 236 nM.
